Experimental data reported in US20170119020A1, “METHOD OF FEEDING AN ANIMAL” (CARGILL, INCORPORATED, priority 2014, published 2017).

Legend:
sows and piglets [1] = experiment: Content of vitamins E and A in serum of sows and piglets, HPLC (Example 10); type: in vivo, pig; conditions: for Vitamin A in serum of piglets / Vitamin E in serum of piglets: piglets at 21 days
Excerpt: (§1) The performance following criteria were monitored during the trial: (i) Sows response criteria (actual parity, farrowing rate, culled sows—number and reasons, wean-to-mating interval, farrowing rate in the next cycle); (ii) litter response criteria (number of piglets, total, alive, stillborn, mummies; weight of piglets and litters; survival). The following biochemical (blood) criteria were monitored during the trial for the sows (mating, farrowing and weaning), piglets 21st day: (i) glutathione peroxidase (GPx) activity; (ii) superoxide dismutase (SOD) activity; (iii) total antioxidant status (TAS); (iv) vitamin E content; (v) vitamin A content.
(§2) To determine the oxidative status, the blood samples were collected from sows and piglets into tubes with lithium anticoagulant—received whole blood for analysis. At the same time blood samples were taken for blood clot. They were centrifuged (1500 rpm, 15 Temp. 4° C.) and obtained serum was pipetted into separate tubes.
(§3) The content of the TAS (total antioxidant status) were determined using the Antioxidant assay kit (Cat. No CS0790), the activity of SOD (superoxide dismutase) was determined using SOD determination kit 19160, the activity of GPx (glutathione Peroxide assai Cellular Activity Kit) Cat. No CGP1. The content of vitamins A and E by McMurray and Blanchflower 1979 (Journal of Chromatography 178, 525-531.). TAS
Serum samples (1 ml) was deproteinized with anhydrous ethanol (1 ml), extracted with 5 ml of n-hexane (Vortex 5′), then centrifuged (3000 rpm, 10′, temp. 4° C.). The resulting 4 ml of the supernatant were evaporated to dryness under nitrogen, and then dissolved in 1 ml of 96% ethanol and analyzed by high performance liquid chromatography (HPLC).
The contents of retinol and tocopherol was determined by reversed-phase high performance liquid chromatography (HPLC) with chromatograph SHIMADZU. Nucleosil C18 column is used, the carrier phase was methanol-water (95:5, v: v). The measurement was performed using a UV detector at a wavelength of 326 nm to determine the amount of retinol and a fluorescence detector (excitation wavelength—295 nm, emission wavelength—330 nM) to determine the tocopherol content. The concentration of retinol and tocopherol were calculated on the basis of the peak external standards (Sigma-Aldrich (□)-a-Tocopherol, Retinol Vitamin-A-alcohol).

sows and piglets [2] = experiment: Glutathione peroxidase (GPx) activity in blood of sows and piglets (Example 10); type: in vivo, pig; conditions: for Activity of glutathione peroxidase (GPx) in blood of piglets: piglets at 21 days
Excerpt: as §1, §2
In studies of oxidative status of sows and piglets were used suitable to each of the indicators, the reagent kits from Sigma-Aldrich. Determination was made in accordance with the descriptions of the rules and procedures specified by the manufacturer.
as §3
Whole blood samples (blood collection from animals to tubes with lithium anticoagulant) in duplicate (10 pl) was added to […] of buffer (pH 8), mixed (vortex—10′), then added 10 pl of a 70% aqueous solution of tert-butyl Hydroperoxide, mixed (by inversion) and the absorbance was measured immediately in a spectrophotometer at a wavelength of 340 nm. After 1 minute the measurement was repeated. Simultaneously blank samples (reagent) were performed and a calibration curve based on GPx serial dilutions in the range of 20 to 50 U/ml. The decrease in NADPH absorbance (during 1 minute) measured at 340 nm during the oxidation of NADPH to NADP+ is indicative of GPx activity.

[3] = Breeding, Group 2: vitamin E 50/75 mg/kg diet
[4] = Breeding, Group 3: vitamin E 100/150 mg/kg diet
[5] = Farrowing, Group 2: vitamin E 50/75 mg/kg diet
[6] = Farrowing, Group 3: vitamin E 100/150 mg/kg diet
[7] = Weaning, Group 2: vitamin E 50/75 mg/kg diet
[8] = Weaning, Group 3: vitamin E 100/150 mg/kg diet
[9] = Group 2: vitamin E 50/75 mg/kg sow diet
[10] = Group 3: vitamin E 100/150 mg/kg sow diet

Structure (SMILES): Cc1c(C)c2c(c(C)c1O)CCC(C)(CCCC(C)CCCC(C)CCCC(C)C)O2 (racemic) [Vitamin E, DL-α-tocopherol]
- Content of Vitamin A in the serum of sows (sows and piglets [1]; [3]): 0.15 µg/mL
- Content of Vitamin E in the serum of sows (sows and piglets [1]; [3]): 1.09 µg/mL
- Content of Vitamin A in the serum of sows (sows and piglets [1]; [4]): 0.16 µg/mL
- Content of Vitamin E in the serum of sows (sows and piglets [1]; [4]): 1.11 µg/mL
- Content of Vitamin A in the serum of sows (sows and piglets [1]; [5]): 0.11 µg/mL
- Content of Vitamin E in the serum of sows (sows and piglets [1]; [5]): 0.74 µg/mL
- Content of Vitamin A in the serum of sows (sows and piglets [1]; [6]): 0.15 µg/mL
- Content of Vitamin E in the serum of sows (sows and piglets [1]; [6]): 1.16 µg/mL
- piglet serum a-tocopherol concentrations, lactation sows fed 150 mg/kg versus 75 mg/kg vitamin E (sows and piglets [1]; P<0.001): higher
- Content of Vitamin A in the serum of sows (sows and piglets [1]; [7]): 0.15 µg/mL
- Content of Vitamin E in the serum of sows (sows and piglets [1]; [7]): 1.02 µg/mL
- Content of Vitamin A in the serum of sows (sows and piglets [1]; [8]): 0.15 µg/mL
- Content of Vitamin E in the serum of sows (sows and piglets [1]; [8]): 1.13 µg/mL
- sow serum a-tocopherol (vitamin E) concentrations when vitamin E was added to the sow diets (sows and piglets [1]; gestation and lactation, P<0.001): higher
- Vitamin A in serum of piglets (sows and piglets [1]; [9]): 0.16 µg/mL
- Vitamin E in serum of piglets (sows and piglets [1]; [9]): 1.41 µg/mL
- Vitamin A in serum of piglets (sows and piglets [1]; [10]): 0.2 µg/mL
- Vitamin E in serum of piglets (sows and piglets [1]; [10]): 1.61 µg/mL
- Activity of glutathione peroxidase (GPx) in blood of sows (sows and piglets [2]; [3]): 37.73 U/ml
- Activity of glutathione peroxidase (GPx) in blood of sows (sows and piglets [2]; [4]): 38.85 U/ml
- Activity of glutathione peroxidase (GPx) in blood of sows (sows and piglets [2]; [5]): 32.77^C U/ml
- Activity of glutathione peroxidase (GPx) in blood of sows (sows and piglets [2]; [6]): 37.64^B U/ml
- Activity of glutathione peroxidase (GPx) in blood of sows (sows and piglets [2]; [7]): 34.78^C U/ml
- Activity of glutathione peroxidase (GPx) in blood of sows (sows and piglets [2]; [8]): 36.48^B U/ml
- Activity of glutathione peroxidase (GPx) in blood of piglets (sows and piglets [2]; [9]): 29.12^B U/ml
- Activity of glutathione peroxidase (GPx) in blood of piglets (sows and piglets [2]; [10]): 29.91^B U/ml
